Assay: refractive index (Na D-line) (dimensionless); xn = mol fraction of the nth substance listed
Details: 101 kPa, Liquid, Standard Abbe refractometry

CC(O)CN (stereo not drawn) [1-amino-2-propanol] + O
refractive index
Details | 293.15 K | 298.15 K | 303.15 K | 308.15 K | 313.15 K | 318.15 K | 323.15 K | 328.15 K | 333.15 K
x1 = 0.05 | 1.35692 | 1.35622 | 1.35539 | 1.35453 | 1.35365 | 1.35269 | 1.35169 | 1.35059 | 1.35023
x1 = 0.07 | 1.36527 | 1.36437 | 1.36345 | 1.36246 | 1.36149 | 1.36047 | 1.35931 | 1.35816 | 1.35711
x1 = 0.0986 | 1.3763 | 1.37524 | 1.37416 | 1.37306 | 1.37191 | 1.37079 | 1.36955 | 1.36821 | 1.36712
x1 = 0.1993 | 1.40333 | 1.40184 | 1.40038 | 1.39868 | 1.39716 | 1.39563 | 1.39469 | 1.39247 | 1.39103
x1 = 0.3003 | 1.41934 | 1.41723 | 1.41554 | 1.41385 | 1.41214 | 1.41051 | 1.40883 | 1.4072 | 1.40563
x1 = 0.3955 | 1.42844 | 1.4268 | 1.42513 | 1.42331 | 1.42155 | 1.41987 | 1.41801 | 1.4164 | 1.4146
x1 = 0.4929 | 1.43452 | 1.43286 | 1.431 | 1.42913 | 1.4273 | 1.42548 | 1.42386 | 1.4226 | 1.42038
x1 = 0.5995 | 1.43934 | 1.4377 | 1.4359 | 1.43375 | 1.43187 | 1.43017 | 1.42857 | 1.42697 | 1.42445
x1 = 0.7002 | 1.44298 | 1.44053 | 1.43897 | 1.43685 | 1.43493 | 1.43243 | 1.43146 | 1.43006 | 1.42775
x1 = 0.8006 | 1.44474 | 1.44287 | 1.4411 | 1.43908 | 1.43715 | 1.43532 | 1.43369 | 1.43134 | 1.42949
x1 = 0.8992 | 1.44655 | 1.4447 | 1.44275 | 1.44076 | 1.43889 | 1.43691 | 1.4349 | 1.43292 | 1.43089
x1 = 1 | 1.448 | 1.44609 | 1.44409 | 1.44211 | 1.44009 | 1.43817 | 1.43631 | 1.43405 | 1.43208

Reference: the NIST ThermoML archive (doi:10.1021/je100300s)
